Reference: PubChem BioAssay AID256 (DTP/NCI, 2004)
Where “and” joins values, the source holds several entries; their conditions need not be identical. Equal values may be shown once. Inconclusive results and toxic doses are left out. Rule for the calls: active = survival T/C of 150% or more; inactive = T/C below 125% in these data.

System: CD2F1 mice, L1210 leukemia ip, survival T/C
Experiment: NCI In Vivo Anticancer Drug Screen. Data for tumor model L1210 Leukemia (intraperitoneal) in CD2F1 (CDF1) mice
Settings: endpoint: mean survival time, higher = longer survival
In short: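 Each value reflects a quotient of treated over vehicle control outcomes in mice with a transplanted tumor.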

[1] = dose: 100.0 mg/kg/injection, schedule: Q04DX003 (ip), vehicle: saline with Tween-80
[2] = dose: 200.0 mg/kg/injection, schedule: Q04DX003 (ip), vehicle: saline with Tween-80
[3] = dose: 400.0 mg/kg/injection, schedule: Q04DX003 (ip), vehicle: saline with Tween-80
[4] = dose: 100.0 mg/kg/injection, schedule: Q01DX001 (ip), vehicle: saline with Tween-80
[5] = dose: 100.0 mg/kg/injection, schedule: Q01DX009 (ip), vehicle: saline with Tween-80
[6] = dose: 200.0 mg/kg/injection, schedule: Q01DX001 (ip), vehicle: saline with Tween-80
[7] = dose: 200.0 mg/kg/injection, schedule: Q01DX009 (ip), vehicle: saline with Tween-80
[8] = dose: 400.0 mg/kg/injection, schedule: Q01DX001 (ip), vehicle: saline with Tween-80
[9] = dose: 400.0 mg/kg/injection, schedule: Q01DX009 (ip), vehicle: saline with Tween-80
[10] = dose: 50.0 mg/kg/injection, schedule: Q01DX009 (ip), vehicle: saline with Tween-80
[11] = dose: 6.25 mg/kg/injection, schedule: Q01DX009 (ip), vehicle: saline
[12] = dose: 12.5 mg/kg/injection, schedule: Q01DX009 (ip), vehicle: saline
[13] = dose: 25.0 mg/kg/injection, schedule: Q01DX009 (ip), vehicle: other
[14] = dose: 100.0 mg/kg/injection, schedule: Q01DX009 (ip), vehicle: other
[15] = dose: 25.0 mg/kg/injection, schedule: Q04DX003 (ip), vehicle: saline with Tween-80
[16] = dose: 50.0 mg/kg/injection, schedule: Q04DX003 (ip), vehicle: saline with Tween-80
[17] = dose: 100.0 mg/kg/injection, schedule: Q04DX003 (ip), vehicle: saline
[18] = dose: 200.0 mg/kg/injection, schedule: Q04DX003 (ip), vehicle: saline

Measured: T/C

Cc1ccc(S(=O)(=O)/N=S(\C)c2ccc(Cl)cc2)cc1 (stereo unspecified)
inactive: [1] 97 % of control | [2] 108 % of control | [3] 90 % of control

CC(O)C(O)C(O)C(/C=N\N=C(/N)[S-])=N/N=C(\N)[S-].[Pt+2] (stereo unspecified)
inactive: [4] 111 % of control | [5] 91 % of control | [1] 88 % of control | [6] 104 % of control | [7] 94 % of control | [2] 96 % of control | [8] 106 % of control | [9] 89 % of control | [3] 89 % of control

COc1ccc2nc3c(Cl)cccc3c(Oc3ccccc3)c2c1
inactive: [4] 94 % of control | [6] 92 % of control | [8] 101 % of control

CC(C)N1CCC1C(=O)O (stereo unspecified)
inactive: dose: 100.0 mg/kg/injection, schedule: Q01DX009 (ip), vehicle: saline sonified 97 % of control | dose: 200.0 mg/kg/injection, schedule: Q01DX009 (ip), vehicle: saline sonified 105 % of control | dose: 400.0 mg/kg/injection, schedule: Q01DX009 (ip), vehicle: saline sonified 97 % of control

CCCCCC#CC(=O)OC
inactive: [10] 95 % of control | [5] 104 % of control | [1] 94 % of control | [7] 103 % of control | [2] 96 % of control

Nc1nc2c(c(=O)[nH]1)N1C(=S)N(c3ccc(C(=O)NC(CCC(=O)O)C(=O)O)cc3)CC1CN2 (stereo unspecified)
inactive: dose: 100.0 mg/kg/injection, schedule: Q01DX001 (ip), vehicle: sodium bicarbonate 104 % of control | dose: 200.0 mg/kg/injection, schedule: Q01DX001 (ip), vehicle: sodium bicarbonate 98 % of control | dose: 400.0 mg/kg/injection, schedule: Q01DX001 (ip), vehicle: sodium bicarbonate 102 % of control

C=CC(=O)NCNC(=O)C=C
inactive: [11] 97 % of control | [12] 101 % of control and 102 % of control | dose: 25.0 mg/kg/injection, schedule: Q01DX009 (ip), vehicle: saline with Tween-80 117 % of control | dose: 25.0 mg/kg/injection, schedule: Q01DX009 (ip), vehicle: saline 97 % of control and 102 % of control | [10] 114 % of control | dose: 50.0 mg/kg/injection, schedule: Q01DX009 (ip), vehicle: saline 117 % of control and 104 % of control | dose: 100.0 mg/kg/injection, schedule: Q01DX009 (ip), vehicle: saline 117 % of control and 98 % of control | dose: 200.0 mg/kg/injection, schedule: Q01DX009 (ip), vehicle: saline 96 % of control

CCCCNCCCNCCCNC(=O)c1csc(-c2csc(CCNC(=O)C(NC(=O)C(C)C(O)C(C)NC(=O)C(NC(=O)c3nc(C(CC(N)=O)NCC(N)C(N)=O)nc(N)c3C)C(OC3OC(CO)C(O)C(O)C3OC3OC(CO)C(O)C(OC(N)=O)C3O)c3cnc[nH]3)C(C)O)n2)n1 (stereo unspecified)
inactive: dose: 2.5 mg/kg/injection, schedule: Q01DX009 (ip), vehicle: saline 101 % of control | dose: 5.0 mg/kg/injection, schedule: Q01DX009 (ip), vehicle: saline 101 % of control | dose: 10.0 mg/kg/injection, schedule: Q01DX009 (ip), vehicle: saline 114 % of control | dose: 20.0 mg/kg/injection, schedule: Q01DX009 (ip), vehicle: saline 104 % of control | dose: 40.0 mg/kg/injection, schedule: Q01DX009 (ip), vehicle: saline 104 % of control

CSc1ccc(NC(=O)CCl)cc1
inactive: [1] 91 % of control

COc1ccc2nc3cc(Cl)ccc3c(Nc3cccc(NC(C)=O)c3)c2n1
inactive: [13] 102 % of control | dose: 50.0 mg/kg/injection, schedule: Q01DX009 (ip), vehicle: other 96 % of control | [14] 86 % of control

OC(c1ccccc1)(c1ccc(-c2ccccc2)cc1)C(O)(c1ccccc1)c1ccc(-c2ccccc2)cc1 (stereo unspecified)
inactive: [15] 96 % of control | [16] 90 % of control | [1] 90 % of control and 100 % of control | [2] 92 % of control | [3] 92 % of control

ClC(Cl)=C(c1ccc(Cl)cc1)c1ccc(Cl)cc1
inactive: [5] 103 % of control | [7] 97 % of control | [9] 101 % of control

O=C(CNC(=O)c1ccccc1)N/N=C/c1cccc([N+](=O)[O-])c1
inactive: [5] 90 % of control | [9] 89 % of control

COC1N(C2CC(O)C(CO)O2)C(=O)NC(=O)C1(F)Br (stereo unspecified)
inactive: dose: 1.56 mg/kg/injection, schedule: Q01DX009 (ip), vehicle: saline 97 % of control and 108 % of control | dose: 3.12 mg/kg/injection, schedule: Q01DX009 (ip), vehicle: saline 115 % of control and 117 % of control | [11] 112 % of control | [12] 109 % of control | [17] 110 % of control | [18] 122 % of control

CCCCCCCCCCCCCCCC(=O)N(C(C)CCCN(CC)CC)C(C)CCCN(CC)CC (stereo unspecified)
inactive: dose: 6.25 mg/kg/injection, schedule: Q01DX009 (ip), vehicle: Klucel (hydroxypropylcellulose) (HPC) 101 % of control | dose: 12.5 mg/kg/injection, schedule: Q01DX009 (ip), vehicle: Klucel (hydroxypropylcellulose) (HPC) 100 % of control | dose: 25.0 mg/kg/injection, schedule: Q01DX009 (ip), vehicle: Klucel (hydroxypropylcellulose) (HPC) 91 % of control

O=C(NC(NC(=O)c1ccc(Cl)cc1)C(Cl)(Cl)Cl)c1ccc(Cl)cc1
inactive: [15] 98 % of control | [16] 88 % of control | [1] 90 % of control

O=C1COC(C(Cl)(Cl)Cl)CN1 (stereo unspecified)
inactive: [5] 98 % of control | [1] 102 % of control | [7] 95 % of control | [2] 100 % of control | [9] 102 % of control | [3] 104 % of control

CC(C)CC(NC(c1ccccc1)(c1ccccc1)c1ccccc1)C(=O)O (stereo unspecified)
inactive: dose: 100.0 mg/kg/injection, schedule: Q01DX001 (ip), vehicle: saline 102 % of control | dose: 200.0 mg/kg/injection, schedule: Q01DX001 (ip), vehicle: saline 95 % of control | dose: 400.0 mg/kg/injection, schedule: Q01DX001 (ip), vehicle: saline 102 % of control

CC(CN)OCc1ccccc1 (stereo unspecified)
inactive: dose: 25.0 mg/kg/injection, schedule: Q04DX003 (ip), vehicle: saline 98 % of control | dose: 50.0 mg/kg/injection, schedule: Q04DX003 (ip), vehicle: saline 101 % of control | [17] 101 % of control

CN1CCN(c2ccccc2N)CC1
inactive: dose: 5.0 mg/kg/injection, schedule: Q01DX009 (ip), vehicle: saline with Tween-80 108 % of control | dose: 10.0 mg/kg/injection, schedule: Q01DX009 (ip), vehicle: saline with Tween-80 108 % of control | dose: 20.0 mg/kg/injection, schedule: Q01DX009 (ip), vehicle: saline with Tween-80 102 % of control

NCCc1nc[nH]c1[N+](=O)[O-]
inactive: dose: 12.5 mg/kg/injection, schedule: Q01DX005 (ip), vehicle: water 106 % of control | dose: 25.0 mg/kg/injection, schedule: Q01DX005 (ip), vehicle: water 97 % of control | dose: 50.0 mg/kg/injection, schedule: Q01DX005 (ip), vehicle: water 97 % of control | dose: 100.0 mg/kg/injection, schedule: Q01DX005 (ip), vehicle: water 103 % of control | dose: 200.0 mg/kg/injection, schedule: Q01DX005 (ip), vehicle: water 92 % of control

CC(C#N)(Nc1ccccc1)c1ccco1 (stereo unspecified)
inactive: dose: 6.25 mg/kg/injection, schedule: Q01DX009 (ip), vehicle: other 102 % of control | dose: 6.25 mg/kg/injection, schedule: Q04DX003 (ip), vehicle: other 94 % of control | dose: 12.5 mg/kg/injection, schedule: Q01DX009 (ip), vehicle: other 100 % of control | dose: 12.5 mg/kg/injection, schedule: Q04DX003 (ip), vehicle: other 95 % of control | [13] 94 % of control | dose: 25.0 mg/kg/injection, schedule: Q04DX003 (ip), vehicle: other 106 % of control | [14] 90 % of control | [17] 103 % of control | dose: 200.0 mg/kg/injection, schedule: Q01DX009 (ip), vehicle: other 94 % of control | [18] 101 % of control | dose: 400.0 mg/kg/injection, schedule: Q04DX003 (ip), vehicle: saline 94 % of control

CCCCOc1ccc(C=Nc2ccc(CC)cc2)cc1
inactive: [1] 101 % of control | [2] 97 % of control | [3] 103 % of control

COC(=O)CCN(c1ccccc1)c1ccc(C)cc1
inactive: [1] 97 % of control | [2] 97 % of control | [3] 97 % of control

CCCCCCCCCCCCCCCC[N+]1(CCC)CCSCC1
inactive: [4] 102 % of control | [6] 110 % of control

CC(=O)OC1CCCCCCCCCCC12OCCO2 (stereo unspecified)
inactive: dose: 100.0 mg/kg/injection, schedule: Q04DX002 (ip), vehicle: other 104 % of control | dose: 400.0 mg/kg/injection, schedule: Q04DX002 (ip), vehicle: other 115 % of control
